Reference: PMC10085697 (2023)

Assays:
[1] = test system: Mango II (RNA, aptamer) GCACGUACGAAGGAGAGGAGAGGAAGAGGAGAGUACGUGC; experiment: absorbance shift and fluorescence light-up; conditions: 140 mM KCl; 10 mM Tris-HCl pH 7.5, 5 μM dye, 5 μM RNA
[2] = test system: Mango IV (RNA, aptamer) GCACGUACCGAGGGAGUGGUGAGGAUGAGGCGAGUACGUGC; experiment: absorbance shift and fluorescence light-up; conditions: 140 mM KCl; 10 mM Tris-HCl pH 7.5, 5 μM dye, 5 μM RNA
[3] = test system: Broccoli (RNA, aptamer) GGGAGACGGUCGGGUCCAGAUAUUCGUAUCUGUCGAGUAGAGUGUGGGCUC; experiment: absorbance and fluorescence titration; conditions: 140 mM KCl; 10 mM Tris-HCl pH 7.5
[4] = test system: Control G4 RNA (utr-z) (RNA, G4) GGCGGCGGCAGUGGCGGCGG; experiment: fluorescence light-up; conditions: 140 mM KCl; 10 mM Tris-HCl pH 7.5, 5 μM dye, 5 μM RNA
[5] = test system: ds_Mango II (RNA, aptamer) GGUGUGGGGCACGUACGAAGGAGAGGAGAGGAAGAGGAGAGUACGUGCCCCACA; experiment: fluorescence light-up; conditions: 140 mM KCl
[6] = test system: Broccoli (RNA, aptamer) GGGAGACGGUCGGGUCCAGAUAUUCGUAUCUGUCGAGUAGAGUGUGGGCUC; experiment: fluorescence titration; conditions: affinity called insignificant compared to that of Mango II; highest concentration not stated
[7] = test system: Mango IV (RNA, aptamer) GCACGUACCGAGGGAGUGGUGAGGAUGAGGCGAGUACGUGC; experiment: fluorescence light-up titration (Monolith NT.115); conditions: 140 mM KCl; 10 mM Tris-HCl pH 7.5, 0.05% Tween-20, 25 °C, 10 nM dye; rough evaluation
[8] = test system: Mango II (RNA, aptamer) GCACGUACGAAGGAGAGGAGAGGAAGAGGAGAGUACGUGC; experiment: fluorescence light-up titration (Monolith NT.115); conditions: 140 mM KCl; 10 mM Tris-HCl pH 7.5, 0.05% Tween-20, 25 °C, 10 nM dye; rough evaluation

Row | SMILES | binding [1] | binding [2] | binding [4] | other results
1 | O=C(CCCC[C@@H]1SC[C@@H]2NC(=O)N[C@@H]21)NCCOCCOCCOCCn1cc(C[n+]2c(/C=C/c3cc4c5c(c3)CCCN5CCC4)sc3ccccc32)nn1 | yes | yes |  | 
2 | CC1=N/C(=C\c2cc(F)c(O)c(F)c2)C(=O)N1C |  |  |  | binding [3]: yes
3 | CN(C)c1ccc(/C=C/c2sc3ccccc3[n+]2Cc2cn(CCOCCOCCOCCNC(=O)CCCC[C@@H]3SC[C@@H]4NC(=O)N[C@@H]43)nn2)cc1 |  |  | weak | binding ([5]; 20 mM sodium phosphate pH 7.2, 0.05% Tween-20, 1 μM): yes; binding [6]: no; KD [7]: 600 ± 400 nM; KD [8]: 80 ± 60 nM
4 | CC1=CC(C)(C)N(C)c2ccc(/C=C/c3sc4ccccc4[n+]3Cc3cn(CCOCCOCCOCCNC(=O)CCCC[C@@H]4SC[C@@H]5NC(=O)N[C@@H]54)nn3)cc21 | yes | yes |  | 
5 | CN1C=CC(=Cc2sc3ccccc3[n+]2Cc2cn(CCOCCOCCOCCNC(=O)CCCC[C@@H]3SC[C@@H]4NC(=O)N[C@@H]43)nn2)c2ccccc21 | yes | yes | yes | 
6 | CN1C=CC(=Cc2sc3ccccc3[n+]2CC(=O)NCCOCCOCCOCCNC(=O)CCCC[C@@H]2SC[C@@H]3NC(=O)N[C@@H]32)c2ccccc21 | yes | yes | yes | binding ([5]; buffer stated for 4b only): yes
